# Assay results from US6379649B1, “Imidazo(1,2-a)pyridines as peripheral benzodiazepine receptor binding agents” (Australian Nuclear Science & Technology Organisation, priority 1998, dated 2002).
# pIC50: −log10 of the molar value. Like-named read-outs stand apart in the source and are kept apart here.
# Assays:
# [1] = biological target: peripheral benzodiazepine receptor (Rattus norvegicus, UniProt P16257); experiment: In vitro binding assay for peripheral benzodiazepine receptors ([^3H]-PK11195, rat kidney membranes); parameters: diluted kidney membrane preparation; from tissue; host or cells: rat kidney membranes (Sprague Dawley)
# peripheral benzodiazepine receptor, sequence (P16257 whole entry): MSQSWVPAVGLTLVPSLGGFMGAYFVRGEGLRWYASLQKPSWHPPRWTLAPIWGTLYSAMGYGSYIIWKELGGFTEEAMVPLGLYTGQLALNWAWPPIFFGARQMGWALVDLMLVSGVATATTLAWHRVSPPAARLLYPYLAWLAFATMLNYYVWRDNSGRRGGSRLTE
# Procedure: In Vitro Binding Assays for Peripheral Benzodiazepine Receptors
# Male Sprague Dawley rats are sacrificed by CO2 administration followed by cervical dislocation. Kidneys are removed and placed in 20 volumes of ice-cold buffer ([…] Tris-HCl, pH 7.4) and minced finely with scissors. After homogenising the preparation with a polytron (PCU Kintematica, Bioblock, Switzerland) with one 10-second burst at a setting of 10, the suspension is centrifuged at 49,000 g for 15 minutes at 4° C. The pellets are resuspended in the previous buffer with a dounce (manual homogeniser) to yield an appropriate protein concentration. Protein measurements are made by Lowry's method using bovine serum albumin as standard.
# (§1) Non-specific binding is determined by blocking with cold PK11195 (10 μM). Incubation is terminated by rapid filtration through Whatman GF/B glass fiber. Each sample tube and filter is immediately washed with 3 aliquots of 5 mL ice-cold […] Tris/HCl at pH 7.4. Filters are counted with a β-scintillation counter (Packard) to measure the amount of bound radioactivity. Ki and IC50 are calculated by EBDA/Ligand, iterative non-linear least squares curve-fitting programs.
# [2] = biological target: central benzodiazepine receptor; experiment: In vitro binding assay for central benzodiazepine receptors ([^3H]-Ro 15-1788, rat cortex membranes); conditions: rat cortex membrane / rat brain homogenates, [^3H]-Ro 15-1788 2 nM, 25° C., 45 minutes; read-out: IC50 (nM) CBR
# Procedure: In Vitro Binding Assays for Central Benzodiazepine Receptors
# Male Sprague Dawley rats are sacrificed by CO2 administration followed by cervical dislocation. Cortex is removed and placed in 20 volumes of ice-cold buffer ([…] Tris-HCl, pH 7.4) and minced finely with scissors. After homogenising the preparation will a polytron (PCU Kinematica, Bioblock, Switzerland) with one 10-second burst at a setting of 6, the suspension is centrifuged at 20,000 g for 20 minutes at 4° C. The pellets are resuspended in the previous buffer with a dounce (manual homogeniser). After the second centrifugation, the pellet is suspended in a final buffer (50 nM Tris/HCl, 0.32M sucrose, pH 7.4) to yield an appropriate protein concentration. Protein measurements are made by Lowry's method using bovine serum albumin as standard.
# as §1, with “Flumazenil (20” for “PK11195 (10”, “programs (G. A. McPherson, J. Pharmacol. Methods 14, 213-228 (1985)).” for “programs.”
# [3] = In vivo biodistribution of radiolabelled compounds in rats
# From the text: In vivo biodistribution of radiolabelled compounds of the invention indicated high uptake in the tissues which have known PBR sites. Tables 2 to 4 show the biodistribution of the compounds of Examples 1-3, in which the iodine atom is radiolabelled, when administered to rats.
structure (smiles),measurement,setting,value
CNC(=O)Cc1c(-c2ccc(F)cc2)nc2ccc(Cl)cn12 [B],pIC50,[1],< 6.00
same,melting point,,254 to 256 °C
same,IC50,[2],5.9 nM
CNC(=O)Cc1c(-c2ccc(Cl)cc2)nc2ccc(Br)cn12 [C],pIC50,[1],7.48
same,melting point,,298 to 300 °C
same,IC50,[2],15 nM
NC(=O)Cc1c(-c2ccc(F)cc2)nc2ccc(Cl)cn12 [Comparative Example A],pIC50,[1],5.48
same,melting point,,250 to 252 °C
same,IC50,[2],170 nM
CN(C)C(=O)Cc1c(-c2ccc(Cl)cc2)nc2ccc(Br)cn12 [D],pIC50,[1],7.05
same,melting point,,234 to 236 °C
same,IC50,[2],56.5 nM
"Cc1ccc2nc(-c3ccc(I)cc3)c(CC(=O)N(C)C)n2c1 [E, 6-methyl-2-(4′-iodophenyl)imidazo[1,2-a]pyridine-3-(N,N-dimethyl)acetamide, reference compound]",pIC50,[1],6.75
same,IC50,[2],155 nM
"CNC(=O)Cc1c(-c2ccc(I)cc2)nc2ccc(Cl)cn12 [Example 1, 6-chloro-2-(4′-iodophenyl)-imidazol[1,2-a]pyridine-3-(N-methyl)acetamide]",pIC50,[1],9.00
same,melting point,,308 to 310 °C
same,IC50,[2],> 1000 nM
CN(C)C(=O)Cc1c(-c2ccc(I)cc2)nc2ccc(Cl)cn12 [Example 2],pIC50,[1],8.64
same,melting point,,216 to 218 °C
same,IC50,[2],168 nM
"CCN(CC)C(=O)Cc1c(-c2ccc(I)cc2)nc2ccc(Cl)cn12 [Example 3, 6-chloro-2-(4′-iodophenyl)-imidazo[1,2-a]pyridine-3-(N,N-diethyl)acetamide]",pIC50,[1],> 11.00
same,IC50,[2],> 1000 nM
"CCCCN(C)C(=O)Cc1c(-c2ccc(I)cc2)nc2ccc(Cl)cn12 [Example 6, 6chloro-2-(4′-iodophenyl)-imidazo[1,2-a]pyridine-3-(N-methyl, N-butyl)-acetamide]",IC50,"[1]; rat kidney membrane, [^3H]-PK11195 2 nM, 4° C., 1 hour, read-out: IC50 (nM) PBR",266 nM
same,IC50,[2],> 1000 nM
CCN(CC)C(=O)Cc1c(-c2ccc([123I])cc2)nc2ccc(Cl)cn12 [^123-I Example 3],Biodistribution (% ID/g organ) Adrenals,[3]; 5 Min,2.11 ± 0.12 % ID/g organ
same,Biodistribution (% ID/g organ) Adrenals,[3]; 15 Min,2.03 ± 0.8 % ID/g organ
same,Biodistribution (% ID/g organ) Adrenals,[3]; 24 Hrs,4.56 ± 0.74 % ID/g organ
same,Biodistribution (% ID/g organ) Adrenals,[3]; 30 Min,2.42 ± 0.36 % ID/g organ
same,Biodistribution (% ID/g organ) Adrenals,[3]; 48 Hrs,4.87 ± 0.55 % ID/g organ
same,Biodistribution (% ID/g organ) Adrenals,[3]; 60 Min,2.83 ± 0.41 % ID/g organ
same,Biodistribution (% ID/g organ) Adrenals,[3]; 180 Min,4.1 ± 0.80 % ID/g organ
same,Biodistribution (% ID/g organ) Adrenals,[3]; 240 Min,4.32 ± 0.60 % ID/g organ
same,Biodistribution (% ID/g organ) Adrenals,[3]; 360 Min,5.28 ± 0.95 % ID/g organ
same,Biodistribution (% ID/g organ) Adrenals,[3]; 480 Min,4.22 ± 0.12 % ID/g organ
same,Biodistribution (% ID/g organ) Blood,[3]; 5 Min,0.46 ± 0.08 % ID/g organ
same,Biodistribution (% ID/g organ) Blood,[3]; 15 Min,0.16 ± 0.02 % ID/g organ
same,Biodistribution (% ID/g organ) Blood,[3]; 24 Hrs,0.02 ± 0.001 % ID/g organ
same,Biodistribution (% ID/g organ) Blood,[3]; 30 Min,0.12 ± 0.03 % ID/g organ
same,Biodistribution (% ID/g organ) Blood,[3]; 48 Hrs,0.01 ± 0.001 % ID/g organ
same,Biodistribution (% ID/g organ) Blood,[3]; 60 Min,0.06 ± 0.02 % ID/g organ
same,Biodistribution (% ID/g organ) Blood,[3]; 180 Min,0.04 ± 0.001 % ID/g organ
same,Biodistribution (% ID/g organ) Blood,[3]; 240 Min,0.05 ± 0.001 % ID/g organ
same,Biodistribution (% ID/g organ) Blood,[3]; 360 Min,0.04 ± 0.001 % ID/g organ
same,Biodistribution (% ID/g organ) Blood,[3]; 480 Min,0.03 ± 0.001 % ID/g organ
same,Biodistribution (% ID/g organ) Brain,[3]; 5 Min,0.33 ± 0.04 % ID/g organ
same,Biodistribution (% ID/g organ) Brain,[3]; 15 Min,0.2 ± 0.02 % ID/g organ
same,Biodistribution (% ID/g organ) Brain,[3]; 24 Hrs,0.01 ± 0.001 % ID/g organ
same,Biodistribution (% ID/g organ) Brain,[3]; 30 Min,0.15 ± 0.01 % ID/g organ
same,Biodistribution (% ID/g organ) Brain,[3]; 48 Hrs,0.01 ± 0.001 % ID/g organ
same,Biodistribution (% ID/g organ) Brain,[3]; 60 Min,0.08 ± 0.02 % ID/g organ
same,Biodistribution (% ID/g organ) Brain,[3]; 180 Min,0.05 ± 0.001 % ID/g organ
same,Biodistribution (% ID/g organ) Brain,[3]; 240 Min,0.05 ± 0.01 % ID/g organ
same,Biodistribution (% ID/g organ) Brain,[3]; 360 Min,0.05 ± 0.02 % ID/g organ
same,Biodistribution (% ID/g organ) Brain,[3]; 480 Min,0.03 ± 0.001 % ID/g organ
same,Biodistribution (% ID/g organ) Heart,[3]; 5 Min,2.63 ± 0.30 % ID/g organ
same,Biodistribution (% ID/g organ) Heart,[3]; 15 Min,2.39 ± 035 % ID/g organ
same,Biodistribution (% ID/g organ) Heart,[3]; 24 Hrs,0.39 ± 0.03 % ID/g organ
same,Biodistribution (% ID/g organ) Heart,[3]; 30 Min,2.44 ± 0.28 % ID/g organ
same,Biodistribution (% ID/g organ) Heart,[3]; 48 Hrs,0.17 ± 0.002 % ID/g organ
same,Biodistribution (% ID/g organ) Heart,[3]; 60 Min,2.65 ± 0.63 % ID/g organ
same,Biodistribution (% ID/g organ) Heart,[3]; 180 Min,2.59 ± 0.16 % ID/g organ
same,Biodistribution (% ID/g organ) Heart,[3]; 240 Min,2.49 ± 0.22 % ID/g organ
same,Biodistribution (% ID/g organ) Heart,[3]; 360 Min,2.13 ± 0.45 % ID/g organ
same,Biodistribution (% ID/g organ) Heart,[3]; 480 Min,1.48 ± 0.12 % ID/g organ
same,Biodistribution (% ID/g organ) Kidney,[3]; 5 Min,1.73 ± 0.38 % ID/g organ
same,Biodistribution (% ID/g organ) Kidney,[3]; 15 Min,2.11 ± 0.31 % ID/g organ
same,Biodistribution (% ID/g organ) Kidney,[3]; 24 Hrs,0.25 ± 0.03 % ID/g organ
same,Biodistribution (% ID/g organ) Kidney,[3]; 30 Min,2.31 ± 0.02 % ID/g organ
same,Biodistribution (% ID/g organ) Kidney,[3]; 48 Hrs,0.12 ± 0.01 % ID/g organ
same,Biodistribution (% ID/g organ) Kidney,[3]; 60 Min,1.87 ± 0.66 % ID/g organ
same,Biodistribution (% ID/g organ) Kidney,[3]; 180 Min,1.71 ± 0.17 % ID/g organ
same,Biodistribution (% ID/g organ) Kidney,[3]; 240 Min,1.37 ± 0.18 % ID/g organ
same,Biodistribution (% ID/g organ) Kidney,[3]; 360 Min,1.43 ± 0.25 % ID/g organ
same,Biodistribution (% ID/g organ) Kidney,[3]; 480 Min,0.87 ± 0.15 % ID/g organ
same,Biodistribution (% ID/g organ) Liver,[3]; 5 Min,0.87 ± 0.13 % ID/g organ
same,Biodistribution (% ID/g organ) Liver,[3]; 15 Min,0.93 ± 0.06 % ID/g organ
same,Biodistribution (% ID/g organ) Liver,[3]; 24 Hrs,0.06 ± 0.001 % ID/g organ
same,Biodistribution (% ID/g organ) Liver,[3]; 30 Min,0.76 ± 0.01 % ID/g organ
same,Biodistribution (% ID/g organ) Liver,[3]; 48 Hrs,0.04 ± 0.001 % ID/g organ
same,Biodistribution (% ID/g organ) Liver,[3]; 60 Min,0.41 ± 0.14 % ID/g organ
same,Biodistribution (% ID/g organ) Liver,[3]; 180 Min,0.28 ± 0.02 % ID/g organ
same,Biodistribution (% ID/g organ) Liver,[3]; 240 Min,0.23 ± 0.03 % ID/g organ
same,Biodistribution (% ID/g organ) Liver,[3]; 360 Min,0.23 ± 0.02 % ID/g organ
same,Biodistribution (% ID/g organ) Liver,[3]; 480 Min,0.16 ± 0.01 % ID/g organ
same,Biodistribution (% ID/g organ) Lungs,[3]; 5 Min,13.16 ± 1.24 % ID/g organ
same,Biodistribution (% ID/g organ) Lungs,[3]; 15 Min,6.98 ± 1.87 % ID/g organ
same,Biodistribution (% ID/g organ) Lungs,[3]; 24 Hrs,0.31 ± 0.06 % ID/g organ
same,Biodistribution (% ID/g organ) Lungs,[3]; 30 Min,4.91 ± 0.22 % ID/g organ
same,Biodistribution (% ID/g organ) Lungs,[3]; 48 Hrs,0.17 ± 0.02 % ID/g organ
same,Biodistribution (% ID/g organ) Lungs,[3]; 60 Min,2.76 ± 0.80 % ID/g organ
same,Biodistribution (% ID/g organ) Lungs,[3]; 180 Min,1.63 ± 0.07 % ID/g organ
same,Biodistribution (% ID/g organ) Lungs,[3]; 240 Min,1.38 ± 0.09 % ID/g organ
same,Biodistribution (% ID/g organ) Lungs,[3]; 360 Min,1.21 ± 0.27 % ID/g organ
same,Biodistribution (% ID/g organ) Lungs,[3]; 480 Min,0.75 ± 0.07 % ID/g organ
same,Biodistribution (% ID/g organ) Olfactive bulbs,[3]; 5 Min,0.44 ± 0.08 % ID/g organ
same,Biodistribution (% ID/g organ) Olfactive bulbs,[3]; 15 Min,0.31 ± 0.03 % ID/g organ
same,Biodistribution (% ID/g organ) Olfactive bulbs,[3]; 24 Hrs,0.09 ± 0.001 % ID/g organ
same,Biodistribution (% ID/g organ) Olfactive bulbs,[3]; 30 Min,0.26 ± 0.03 % ID/g organ
same,Biodistribution (% ID/g organ) Olfactive bulbs,[3]; 48 Hrs,0.07 ± 0.001 % ID/g organ
same,Biodistribution (% ID/g organ) Olfactive bulbs,[3]; 60 Min,0.2 ± 0.07 % ID/g organ
same,Biodistribution (% ID/g organ) Olfactive bulbs,[3]; 180 Min,0.16 ± 0.02 % ID/g organ
same,Biodistribution (% ID/g organ) Olfactive bulbs,[3]; 240 Min,0.18 ± 0.03 % ID/g organ
same,Biodistribution (% ID/g organ) Olfactive bulbs,[3]; 360 Min,0.16 ± 0.04 % ID/g organ
same,Biodistribution (% ID/g organ) Olfactive bulbs,[3]; 480 Min,0.16 ± 0.03 % ID/g organ
